Laboratory results reported in article PMC9103789 (International Journal of Molecular Sciences, 2022).
pIC50, pKi: −log10 of the molar value. “And” between values parts separate entries of the source, which are not always exact repeats. Equal values may be shown once.

Legend:
[1] = set-up: method as in PMID 32250458; details: cited from earlier work
[2] = Intrinsic clearance in human liver microsomes (in-house data); assay type: in vitro ADME; details: read-out: CLint,HLM
Description: All physicochemical and in vitro pharmacokinetic parameters were obtained from the literature or predicted by Simcyp® Simulator (version 16, Certara, Sheffield, U.K.). The intrinsic clearance value of pooled HLMs and human tacrolimus PBPK model was retrieved from our previous publication. The models for CYP3A5 expressers/non-expressers were built by modifying our established model with intrinsic clearance values of each CYP isoform. With the inhibitory parameters acquired from our experiments, a DDI module was incorporated into the PBPK model of tacrolimus.

[3] = molecular target: T1, CYP3A5 (CYP3A5 *1/*3 HLMs + CYP3cide) (Homo sapiens, UniProt P20815); assay: Reversible inhibition (RI) assay in genotyped HLMs with CYP3cide; assay type: in vitro ADME; details: Dixon plot, tacrolimus substrate
T1 construct: For the CYP3A5 experiment, CYP3cide and CYP3A5 * 1/*3 HLMs were pre-warmed; tissue Transheep Co., Ltd. (Shanghai, China) lot: 0710232; host or cells: human liver microsomes, CYP3A5 *1/*3 genotype, treated with CYP3cide
Description: (§1) The reactions started upon the addition of NADPH and were terminated after 10 min by adding 200 μL of ice-cooled acetonitrile containing 0.1 μM of ascomycin (internal standard). […] The reaction was also terminated with ice-cooled acetonitrile. All experiments were carried out in triplicates.
(§2) Linear regression implemented in GraphPad Prism was plotted with the reciprocal value of metabolic reaction rate (1/v) against inhibitor concentration. The intersection of lines was used to calculate the Ki value.

CYP3A [4] = assay: IC50 shift assay in pooled HLMs (testosterone 6β-hydroxylation); assay type: in vitro ADME; details: human, pooled human liver microsomes, pH 7.4, probe testosterone (200 μM); for IC50 at 30 min / pIC50: pooled HLMs; for IC50 at 30 min: 30 min preincubation with NADPH; for pIC50: no preincubation
Description: Pooled HLMs were used in this assay to determine the IC50 shift and identify time-dependent inhibition. The experiment was divided into two groups, depending on preincubation status. […] In all samples, the final concentrations of organic solvents were not more than 1% (V/V). Schizandrol (A or B) was pre-incubated with the pooled HLMs and testosterone for 3 min at […]. In the groups without 30-minute preincubation, the reaction was started upon the addition of NADPH and terminated by 200 μL of ice-cooled methanol containing 0.315 μM of prednisolone (internal standard). […] Next, testosterone was added to initiate the reaction. The reaction was terminated with the same method. All experiments were carried out in triplicates.
The formation of 6β-hydroxytestosterone in a control group was used as a surrogate marker for remaining enzymes’ activity. […] IC50 shift value was determined by Equation (2). […] (2) IC50 shift=IC50 without NADPH preincubation/IC50 with NADPH preincubation

CYP3A [5] = assay: Time-dependent inhibition (TDI) assay in pooled HLMs; assay type: in vitro ADME, human; details: for kinact: human, pooled human liver microsomes, probe testosterone (200 μM), 6β-hydroxytestosterone formation
Description: (§3) A two-step protocol was followed to perform the general TDI assay. […] The reaction was initiated upon addition of NADPH (1 mM). At the designated time points (0, 5, 10, 20, or 30 min), an aliquot (20 μL) of the incubation mixture was transferred to a 180-microliter pre-warmed solution containing PBS (0.1 M), testosterone (200 μM) and NADPH (1 mM) for another 10-minute incubation. […] For the CYP3A5 experiment, CYP3cide and CYP3A5 * 1/*3 HLMs were pre-warmed for 3 min before the reaction initiation. […] All experiments were carried out in triplicates.
(§4) [I] stands for the inhibitor concentration. A high ratio of kinact over KI indicates great inhibitory potency. (3) kobs=kinact×[I]/KI+[I]

[6] = set-up: method as in PMID 25392942; details: after oral administration of WZC, healthy Chinese, plasma; cited from earlier work
[7] = set-up: method as in PMID 24195812; details: rats, oral administration of SZB; cited from earlier work
CYP3A (pooled HLMs) = assay: Reversible inhibition (RI) assay, tacrolimus metabolism in pooled HLMs; assay type: in vitro ADME, human; details: Dixon plot
Description: as §1, with “triplicates. […] The intersection of lines was used to calculate the Ki value.” for “triplicates.”

CYP3A [8] = assay: as above; assay type: in vitro ADME, human; details: human, pooled human liver microsomes, pH 7.4, probe tacrolimus (0.25, 0.5, 1, 2 μM), Dixon plot, tacrolimus substrate
Description: as §1, with “triplicates. […] The intersection of lines was used to calculate the Ki value.” for “triplicates.”

CYP3A5 = molecular target: T2, CYP3A5 (Homo sapiens, UniProt P20815); assay: Time-dependent inhibition (TDI) assay in CYP3A5 *1/*3 HLMs with CYP3cide; assay type: in vitro ADME
T2 construct: For the CYP3A5 experiment, CYP3cide and CYP3A5 * 1/*3 HLMs were pre-warmed; tissue Transheep Co., Ltd. (Shanghai, China) lot: 0710232; host or cells: human liver microsomes, CYP3A5 *1/*3 genotype, treated with CYP3cide
Description: as §3, with “incubation. The reaction was stopped with ice-cooled acetonitrile containing prednisolone (0.315 μM).” for “incubation.”
Kinetic parameters of the TDI (KI and kinact refer to the inhibitor concentration causing half-maximal inactivation and the maximal inactivation rate constant, respectively) were determined with Equation (3). kobs refers to the observed inactivation rate of the affected enzyme, determined by the negative slope of the linear regression. kinact is calculated with the negative reciprocal value of the straight line at the Y-intercept, while the interception on X-axis represents KI. [I] stands for the inhibitor concentration. A high ratio of kinact over KI indicates great inhibitory potency. (3) kobs=kinact×[I]/KI+[I]

CYP3A4 = molecular target: T3, CYP3A4 (Homo sapiens, UniProt P08684); assay: Time-dependent inhibition (TDI) assay in CYP3A5 *3/*3 HLMs; assay type: in vitro ADME; details: for KI / kinact/KI: CYP3A4, genotyped HLMs; for kinact: human, CYP3A5 *3/*3 genotyped human liver microsomes, probe testosterone (200 μM), 6β-hydroxytestosterone formation
T3 construct: replacing pooled HLMs with CYP3A5 * 3/*3 HLMs; tissue Transheep Co., Ltd. (Shanghai, China) lot: 0710253; host or cells: human liver microsomes, CYP3A5 *3/*3 genotype
Description: as §3, §4

[9] = molecular target: T4, CYP3A4 (CYP3A5 *3/*3 HLMs) (Homo sapiens, UniProt P08684); assay: Reversible inhibition (RI) assay in genotyped HLMs; assay type: in vitro ADME; details: Dixon plot, tacrolimus substrate
T4 construct: replacing pooled HLMs with CYP3A5 * 3/*3 HLMs; tissue Transheep Co., Ltd. (Shanghai, China) lot: 0710253; host or cells: human liver microsomes, CYP3A5 *3/*3 genotype
Description: as §1, §2

T3 sequence (P08684 whole entry): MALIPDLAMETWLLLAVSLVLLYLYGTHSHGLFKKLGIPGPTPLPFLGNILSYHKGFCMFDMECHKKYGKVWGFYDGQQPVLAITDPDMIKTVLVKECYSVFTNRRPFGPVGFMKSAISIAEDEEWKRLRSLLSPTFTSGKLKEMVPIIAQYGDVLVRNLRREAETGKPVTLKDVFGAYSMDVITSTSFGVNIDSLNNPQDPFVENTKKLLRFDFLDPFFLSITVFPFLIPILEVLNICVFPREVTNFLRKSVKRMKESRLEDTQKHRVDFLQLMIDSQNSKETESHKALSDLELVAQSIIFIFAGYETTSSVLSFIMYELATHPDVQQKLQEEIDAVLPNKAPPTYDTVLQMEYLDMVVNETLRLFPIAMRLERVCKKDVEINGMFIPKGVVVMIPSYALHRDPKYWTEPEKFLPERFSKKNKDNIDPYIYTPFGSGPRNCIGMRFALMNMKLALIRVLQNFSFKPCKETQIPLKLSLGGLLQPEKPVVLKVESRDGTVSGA
T2 sequence (P20815 whole entry): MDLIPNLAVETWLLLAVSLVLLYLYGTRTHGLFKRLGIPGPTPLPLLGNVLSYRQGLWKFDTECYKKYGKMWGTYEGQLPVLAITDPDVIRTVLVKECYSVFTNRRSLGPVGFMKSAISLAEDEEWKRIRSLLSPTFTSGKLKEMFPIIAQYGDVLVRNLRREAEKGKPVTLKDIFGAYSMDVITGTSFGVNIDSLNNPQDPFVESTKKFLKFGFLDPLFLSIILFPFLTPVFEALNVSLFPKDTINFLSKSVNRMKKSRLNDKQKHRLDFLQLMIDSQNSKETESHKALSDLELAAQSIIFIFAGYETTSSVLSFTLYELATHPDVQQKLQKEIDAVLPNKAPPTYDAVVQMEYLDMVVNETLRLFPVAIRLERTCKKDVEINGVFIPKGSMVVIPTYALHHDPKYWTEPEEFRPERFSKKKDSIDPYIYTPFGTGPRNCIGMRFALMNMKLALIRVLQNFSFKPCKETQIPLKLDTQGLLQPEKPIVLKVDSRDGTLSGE

| microsomal CLint [2] [µL/min/mg] | IC50 at 30 min (CYP3A [4]) [µM] | pIC50 (CYP3A [4]) | KI (CYP3A [5]) [µM] | kinact/KI (CYP3A [5]) [M⁻¹ s⁻¹] | kinact (CYP3A [5]) [s⁻¹] | KI (CYP3A4) [µM] | kinact/KI (CYP3A4) [M⁻¹ s⁻¹] | kinact (CYP3A4) [s⁻¹] | Compound | AUC, observed [6] [ng·h/mL] | Cmax, observed [6] [ng/mL] | Tmax, observed [6] [h] | reversible inhibition on CYP3A (pattern) (CYP3A (pooled HLMs)) | other results |
| --- | --- | --- | --- | --- | --- | --- | --- | --- | --- | --- | --- | --- | --- | --- |
| 4.5 | 0.56 | 4.92 | 0.43 | 1705.5 | 0.000733 | 0.69 | 8937 | 0.00617 | COc1cc2c(c(OC)c1OC)-c1c(cc3c(c1OC)OCO3)C[C@H](C)[C@@](C)(O)C2 [SZB, Schizandrol B] | 242.97 | 65.18 | 1.13 | competitive and reversible inhibition pattern | increase in bosutinib exposure [1]: 200%; pKi [3]: 5.69 and 5.66; increase in systemic exposure of tacrolimus [7]: 598.4%; Ki at 10 min (CYP3A [8]): 5.82 µM; KI (CYP3A5; CYP3A5, genotyped HLMs): 0.5 µM; kinact/KI (CYP3A5; CYP3A5, genotyped HLMs): 300 M⁻¹ s⁻¹; kinact (CYP3A5; human, CYP3A5 *1/*3 genotyped human liver microsomes with CYP3cide, probe testosterone (200 μM), 6β-hydroxytestosterone formation, with CYP3cide (concentration not stated for this test)): 0.00015 s⁻¹; pKi [9]: 5.66 and 5.69 |
| 50 | 40.5 | 4.20 | 15.625 | 30.93 | 0.000483 | 15.38 | 26 | 0.0004 | COc1cc2c(c(OC)c1OC)-c1c(cc(OC)c(OC)c1OC)C[C@](C)(O)[C@@H](C)C2 [SZA, Schizandrol A] | 467.14 | 111.37 | 1.81 | little reversible inhibition | IC50 shift at 30 min (CYP3A [4]; IC50 without NADPH preincubation / IC50 with NADPH preincubation): 1.57 |
